# Laboratory results: patent US11208387B2, “Macrocyclic broad spectrum antibiotics” (Genentech, Inc., priority 2019, dated 2021)
# Like-named read-outs stand apart in the source and are kept apart here.
# Legend:
# Test in all cases: Serum MIC, broth micro-dilution
# Format in all cases: cell-based
# [1] = tested on: Pseudomonas aeruginosa PA01; conditions: Pseudomonas aeruginosa
# Procedure: (§1) In vitro antimicrobial activity of each compound was determined by measuring minimal inhibitor concentrations (MICs) using the broth micro-dilution technique as approved by the Clinical and Laboratory Standards Institute (CLSI) (Methods for Dilution Antimicrobial Susceptibility Tests for Bacteria that Grow Aerobically; Approved Standard—Eighth Edition. CLSI document M07-A8. Wayne, Pa.: Clinical and Laboratory Standards; 2009). Antibacterial activity was measure against Escherichia coli strain ATCC 25922 (E. coli), Klebsiella pneumoniae ATCC 700603 (K. pneumoniae), Acinetobacter baumannii ATCC 17978 (A. baumannii), and Pseudomonas aeruginosa PA01 (P. aeruginosa), each of which is representative of a clinically relevant Gram-negative species. Cells were inoculated onto plates of Mueller Hinton Agar and grown at 37° C. for 16-18 hours. Inocula suspensions were prepared by scraping cells into 1 mL of testing media (Mueller Hinton II cation adjusted Broth) and diluting to a final OD 600 nm of 0.01.
# (§2) Test compounds were prepared in DMSO at a concentration of […]. The compounds were tested under several different dilution formats. In protocol 1, the compound stocks were diluted into testing media at a concentration of 64 μg/ml and serial 2-fold dilutions were made in the same media, in 96-well U bottom microtiter dishes, for a total of 10 compound concentrations. In protocol 2, the compound stocks were diluted into testing media at a concentration of 4 μg/mL and serial 2-fold dilutions were made in the same media, in 96-well U bottom microtiter dishes, for a total of 10 compound concentrations. In protocol 3, compound stocks were diluted into testing media at a concentration of 0.5 μg/mL, with serial 2-fold dilutions conducted as described above. In protocol 4, compound stocks were diluted into testing media at a concentration of 0.13 μg/mL, with serial 2-fold dilutions conducted as described above. Inocula suspensions were added to the 2-fold serial dilutions of test compounds to a final density of OD 600 nm of 0.0005 and incubated at 35° C. for 22 hours. […] To assess antimicrobial activity in the presence of plasma proteins, MICs were also determined in growth media supplemented with 50% serum. Bacterial inocula and test compound dilution plates were prepared using the same protocol as described above for the standard MICs assay, with the exception that a mixture of 50% v/v Mueller Hinton II cation adjusted Broth and 50% v/v mouse sterile filtered serum (Equitech-Bio) was used in place of 100% Mueller Hinton II cation adjusted Broth. The results are listed in Table 3 (MIC, IC50 values micromolar).
# [2] = tested on: Klebsiella pneumoniae ATCC 700603; conditions: Klebsiella pneumoniae
# Procedure: as §1, §2
# [3] = tested on: Acinetobacter baumannii ATCC 17978; conditions: Acinetobacter baumannii
# Procedure: as §1, §2
# [4] = tested on: Escherichia coli strain ATCC 25922; conditions: Escherichia coli
# Procedure: as §1, §2
# [5] = PA01, 50% v/v mouse serum, compounds of Table 1, Table 7, read-out: P. aeruginosa 01 Serum MIC
# [6] = ATCC700603, 50% v/v mouse serum, compounds of Table 1, Table 7, read-out: K. pneumoniae 700603 Serum MIC
# [7] = ATCC17978, 50% v/v mouse serum, compounds of Table 1, Table 7, read-out: A. baumanii 17978 Serum MIC
# [8] = ATCC25922, 50% v/v mouse serum, compounds of Table 1, Table 7, read-out: E. coli 25922 Serum MIC
Compound,"MIC [1, 5] [µM]","MIC [2, 6] [µM]","MIC [3, 7] [µM]","MIC [4, 8] [µM]",further results
Cc1nc(-c2ccc(C(C)(C)C)cc2)nc(C)c1C(=O)N[C@@H](CCN)C(=O)N(C)[C@@H]1C(=O)N[C@@H](C)C(=O)N[C@H](C(=O)O)Cc2cc(OCCN)c(O)c(c2)-c2cc1ccc2O (racemic) [Example 561-15],64,4,64,2,
Cc1nc(-c2ccc(C(C)(C)C)cc2)nc(C)c1C(=O)N[C@@H](CCN)C(=O)N(C)[C@@H]1C(=O)N[C@@H](C)C(=O)N[C@H](C(=O)O)Cc2cc(OCCN)c(O)c(c2)-c2cc1ccc2OCCN (racemic) [Example 563],,,,,"MIC ([1]; PA01, read-out: P. aeruginosa 01 Serum MIC): 64 µM; MIC ([2]; ATCC700603, read-out: K. pneumoniae 700603 Serum MIC): 0.75 µM; MIC ([3]; ATCC17978, read-out: A. baumanii 17978 Serum MIC): 64 µM; MIC ([4]; ATCC25922, read-out: E. coli 25922 Serum MIC): 0.75 µM"
COc1c(OC[C@H](O)CN)cc2cc1-c1cc(ccc1OC[C@H](O)CN)C[C@@H](C(=O)NCC#N)NC(=O)[C@H](C)NC(=O)[C@H]2N(C)C(=O)[C@H](CCN)NC(=O)c1c(C)nc(-c2ccc(C(C)(C)C)cc2)nc1C (racemic) [Example 586],2,0.094,2,0.094,
Cc1nc(-c2ccc(C(C)(C)C)cc2)ncc1C(=O)N[C@@H](CCN)C(=O)N(C)[C@@H]1C(=O)N[C@@H](C)C(=O)N[C@H](C(=O)O)Cc2ccc(OCCN)c(c2)-c2cc1ccc2OCCN (racemic) [Example 640],64,0.75,64,0.5,
Cc1cc(-c2ccc(C(C)(C)C)cc2)nc(C)c1C(=O)N[C@@H](CCN)C(=O)N(C)[C@@H]1C(=O)N[C@@H](C)C(=O)N[C@H](C(=O)O)Cc2ccc(O)c(c2)-c2cc1ccc2OCCN (racemic) [Example 644],74,4.6,74,1.2,
Cc1nc(-c2ccc(C(C)(C)C)cc2)nc(C)c1C(=O)N[C@@H](CCN)C(=O)N(C)[C@@H]1C(=O)N[C@@H](C)C(=O)N[C@H](C(=O)O)Cc2ccc(OCCN)c(c2)-c2cc1ccc2OCCN (racemic) [Example 645],67,0.55,67,0.53,
Cc1nc(-c2ccc3c(c2)CCC3(C)C)nc(C)c1C(=O)N[C@@H](CCN)C(=O)N(C)[C@@H]1C(=O)N[C@@H](C)C(=O)N[C@H](C(=O)O)Cc2ccc(OCCN)c(c2)-c2cc1ccc2OCCN (racemic) [Example 647],64,1,64,0.5,
Cc1nc(-c2ccc(C(C)(C)C)cc2)nc(C)c1C(=O)N[C@@H](CCN)C(=O)N(C)[C@@H]1C(=O)N[C@@H](C)C(=O)N[C@H](C(=O)O)Cc2ccc(OCCN)c(c2)-c2cc1cc1[nH]c(=O)oc21 (racemic) [Example 649],64,2,64,1,
"C[C@@H]1NC(=O)[C@@H](N(C)C(=O)[C@H](CNS(N)(=O)=O)NC(=O)c2cnn(-c3ccc(C(C)(C)C)cc3)c(=O)c2)c2cc(OC[C@H](O)CN)c(O)c(c2)-c2cc(ccc2OC[C@H](O)CN)C[C@@H](C(=O)O)NC1=O [Example 1, (8S,11S,14S)-18-hydroxy-11-methyl-14-[methyl-[(2S)-2-[[1-(4-tert-butylphenyl)-6-oxo-pyridazine-4-carbonyl]amino]-3-(sulfamoylamino)-propanoyl]amino]-10,13-dioxo-3,17-bis[(2R)-3-amino-2-hydroxy-propoxy]-9,12-diazatricyclo-[13.3.1.12,6]icosa-1(18),2(20),3,5,15(19), 16-hexaene-8-carboxylic acid]",,,,,"MIC ([1]; PA01, 22 h, read-out: P. aeruginosa 01 Serum MIC): 16 µM; MIC ([2]; ATCC700603, 22 h, read-out: K pneumoniae 700603 Serum MIC): 1.5 µM; MIC ([3]; ATCC17978, 22 h, read-out: A. baumanii 17978 Serum MIC): 24 µM; MIC ([3]; ATCC17978, 22 h, read-out: Acinetobacter baumanii 17978 Serum MIC): 24 µM; MIC ([4]; ATCC25922, 22 h, read-out: E. coli 25922 Serum MIC): 3 µM"
"Cc1nc(-c2ccc(OCCC(C)(C)C)cc2)nc(N)c1C(=O)N[C@@H](CNS(N)(=O)=O)C(=O)N(C)[C@@H]1C(=O)N[C@@H](C)C(=O)N[C@H](C(=O)O)Cc2ccc(OC[C@H](O)CN)c(c2)-c2cc1cc(OC[C@H](O)CN)c2O [Example 3, (8S,11S,14S)-18-hydroxy-11-methyl-14-[methyl-[(2S)-2-[[4-amino-2-[4-(3,3-dimethylbutoxy)-phenyl]-6-methyl-pyrimidine-5-carbonyl]amino]-3-(sulfamoylamino)-propanoyl]amino]-10,13-dioxo-3,17-bis[(2R)-3-amino-2-hydroxy-propoxy]-9,12-diazatricyclo-[13.3.1.12,6]icosa-1(18),2(20),3,5,15(19), 16-hexaene-8-carboxylic acid]",,,,,"MIC ([1]; PA01, 50% v/v mouse serum in Mueller Hinton II cation adjusted Broth, 35° C., 22 hours, Table 4, read-out: P. aeruginosa 01 Serum MIC): 4 µM; MIC ([2]; ATCC700603, 50% v/v mouse serum in Mueller Hinton II cation adjusted Broth, 35° C., 22 hours, Table 4, read-out: K pneumoniae 700603 Serum MIC): 0.5 µM; MIC ([3]; ATCC17978, 50% v/v mouse serum in Mueller Hinton II cation adjusted Broth, 35° C., 22 hours, Table 4, read-out: A. baumanii 17978 Serum MIC): 12 µM; MIC ([3]; ATCC17978, 50% v/v mouse serum in Mueller Hinton II cation adjusted Broth, 35° C., 22 hours, Table 5, read-out: Acinetobacter baumanii 17978 Serum MIC): 12 µM; MIC ([4]; ATCC25922, 50% v/v mouse serum in Mueller Hinton II cation adjusted Broth, 35° C., 22 hours, Table 4, read-out: E. coli 25922 Serum MIC): 0.5 µM"

# Continued, in another order:
"MIC [1, 5] [µM]","MIC [2, 6] [µM]","MIC [3, 7] [µM]","MIC [4, 8] [µM]",Compound,further results
64,1,64,0.75,CCCCCOc1ccc(-c2nc(C)c(C(=O)N[C@@H](CCN)C(=O)N(C)[C@@H]3C(=O)N[C@@H](C)C(=O)N[C@H](C(=O)O)Cc4ccc(OCCN)c(c4)-c4cc3ccc4OCCN)c(C)n2)cc1 (racemic) [Example 638],
64,1,64,0.5,CCC1(Oc2ccc(-c3nc(C)c(C(=O)N[C@@H](CCN)C(=O)N(C)[C@@H]4C(=O)N[C@@H](C)C(=O)N[C@H](C(=O)O)Cc5ccc(OCCN)c(c5)-c5cc4ccc5OCCN)c(C)n3)cc2)CC1 (racemic) [Example 639],
64,1,64,0.75,CCCCCCOc1ccc(-c2nc(C)c(C(=O)N[C@@H](CCN)C(=O)N(C)[C@@H]3C(=O)N[C@@H](C)C(=O)N[C@H](C(=O)O)Cc4ccc(OCCN)c(c4)-c4cc3ccc4OCCN)c(C)n2)cc1 (racemic) [Example 641],
53,1.1,71,25,CCCCCOc1ccc(-c2nc(C)c(C(=O)N[C@@H](CCN)C(=O)N(C)[C@@H]3C(=O)N[C@@H](C)C(=O)N[C@H](C(=O)O)Cc4ccc(OCCN)c(c4)-c4cc3ccc4O)c(C)n2)cc1 (racemic) [Example 642],
73,4.6,73,2.3,Cc1nc(-c2ccc(OC(C)C)cc2)nc(C)c1C(=O)N[C@@H](CCN)C(=O)N(C)[C@@H]1C(=O)N[C@@H](C)C(=O)N[C@H](C(=O)O)Cc2ccc(O)c(c2)-c2cc1ccc2OCCN (racemic) [Example 643],
69,0.58,69,0.55,Cc1nc(-c2ccc(C(C)(C)C)cc2)nc(C)c1C(=O)N[C@@H](CCN)C(=O)N(C)[C@@H]1C(=O)N[C@@H](C)C(=O)N[C@H](C(=O)O)Cc2ccc(O)c(c2)-c2cc1ccc2OCCN (racemic) [Example 646],
> 128,1.3,> 96,0.6,CCCCCOc1ccc(-c2nc(C)c(C(=O)N[C@@H](CCN)C(=O)N(C)[C@@H]3C(=O)N[C@@H](C)C(=O)N[C@H](C(=O)O)Cc4ccc(O)c(c4)-c4cc3ccc4OCCN)c(C)n2)cc1 (racemic) [Example 648],
